Assay results from US6410598B1, “Compositions and methods for advanced glycosylation endproduct-mediated modulation of amyloidosis” (priority 1994, dated 2002).

Tests used:
[1] = target: fibrillar β-amyloid peptide (Homo sapiens, UniProt P05067); assay: Co-precipitation with aggregated β-amyloid peptide (supernatant absorbance spectrum after centrifugation); format: binding
Protocol: A preparation of Compound 8, supra, was employed in this assay. Soluble β-amyloid peptide was allowed to aggregate in the presence of phosphate buffer, Compound 8 or dithionitrobenzene and various compounds as described in Example 1, supra. The samples containing dithionitrobenzene are controls for non-specific association of a chromophoric small molecule with precipitated β-amyloid peptide. An additional control sample was prepared containing phosphate buffer and the various compounds, but lacking β-amyloid peptide. After overnight incubation, the tubes were centrifuged at 15,000×g for 30 minutes, half of the supernatant removed and added to a cuvette, and the absorbance spectrum of the supernatant from 200 to 600 nm obtained. In the absence of an association between compound 8 and aggregated sedimentable B-amyloid components of the aggregated assay incubation, compound 8, which has an absorbance maximum at about 350 nm, will remain in the supernatant and its presence and concentration can be readily determined. Alternatively, association of Compound 8 with the precipitated β-amyloid peptide would result in decreased absorbance at 350 nm. […] In the control tubes, no decrease in the absorbance is expected, since the compound should remain soluble.

soluble βAP = target: T1, soluble βAP (Homo sapiens, UniProt P05067); assay: Thioflavin-T fluorescence assay of βAP aggregation and seeding; format: biochemical; conditions: 400 μM βAP 1-28, 0.1 M sodium acetate pH 7.0; 100 mM glucose, 0.05 M aminoguanidine; FIG. 4
T1 construct: Soluble βAP (400 μM βAP 1-28), 0.1 M sodium acetate in 0.1 M phosphate buffer; purchased Bachem (Torrance, Calif.); host or cells: chemical synthesis
T1 sequence (P05067 672-699): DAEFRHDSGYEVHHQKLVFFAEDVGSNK
Protocol: Aggregation of soluble βAP 1-28 or 3AP 1-40 at different concentrations was initiated by addition of 0.1 M sodium acetate (NaOAc) at the indicated pH (between 4.7 and 7.5) and continued for the indicated times. Quantitative aggregate formation with sub-millimolar βAP concentrations was detected using the procedure of LeVine (1992, Protein Science 2:404-410). Briefly, fluorescence of aggregates added to 10 μM Thioflavin-T (Aldrich)/50 mM potassium phosphate buffer, pH 6.0, was measured upon excitation at 450±5 nm and detection of emission at 482±10 nm on a Perkin Elmer LS-50B spectrofluorimeter. Where indicated, small amounts of pre-formed aggregates or “nucleation seeds” were added to the soluble βAP and aggregation initiated with 0.1 M sodium acetate.
After incubation, protein concentrations of seed preparations were measured and adjusted with buffer to 150 μM final concentration.

Chain of fibrillar β-amyloid peptide (P05067 672-713 limits assumed): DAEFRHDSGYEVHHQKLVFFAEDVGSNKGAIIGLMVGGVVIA

SMILES	absorbance of the supernatant after pelleting of fibrillar β-amyloid peptide versus before pelleting ([1]; 350 nm for Compound 8, overnight incubation, 15,000×g for 30 minutes, FIG. 7)	association with insoluble aggregated β-amyloid peptide ([1]; co-sedimentation in vitro)	effect on fluorescent aggregate formation of soluble βAP (soluble βAP)
Cc1ccc2nc(-c3ccc(NCCCC[N+](C)(C)C[C@@]4(O)OC[C@@H](O)[C@@H](O)[C@@H]4O)cc3)sc2c1 [Compound 8, (4-[N-(4-[N-(1-deoxy-β-D-fructopyranos-1-yl)-N,N-dimethylammonio]butyl)amino]phenyl)-6-methylbenzothiazole chloride]	reduced	specifically associates with insoluble, aggregated β-amyloid peptide deposits	
N=C(N)NN [aminoguanidine]			can inhibit the AGE-enhanced aggregation
